Experimental data from a compilation of properties of binary mixtures (doi:10.1080/00986445.2015.1114477).

Assay: xn = mol fraction of the nth substance listed
Conditions: 100 kPa

CN1CCCC1=O + CCCCCCCCn1cc[n+](C)c1.[Cl-]
x1 = 1
Conditions | viscosity [mPa·s]
288.15 K | 1.989
298.15 K | 1.679
303.15 K | 1.556
308.15 K | 1.441
313.15 K | 1.323
323.15 K | 1.148
328.15 K | 1.065
333.15 K | 1.029

CN1CCN(C)C1=O + CCCCCCCCn1cc[n+](C)c1.[Cl-]
viscosity [mPa·s]
Conditions | 288.15 K | 293.15 K | 298.15 K | 303.15 K | 308.15 K | 313.15 K | 318.15 K | 323.15 K | 328.15 K | 333.15 K
x2 = 0 | 2.368 | 2.139 | 1.945 | 1.76 | 1.616 | 1.491 | 1.381 | 1.28 | 1.195 | 1.117
x2 = 0.105 | 7.99 | 6.88 | 5.98 | 5.25 | 4.64 | 4.14 | 3.72 | 3.36 | – | 2.78
x2 = 0.2056 | 29.6 | 24 | 19.66 | – | 14 | 11.99 | 10.25 | 8.93 | 7.84 | 6.92
x2 = 0.3018 | – | 67.9 | 53.2 | 42.4 | 34.3 | 28.2 | 23.45 | 19.75 | 16.69 | 14.54
x2 = 0.3991 | 217 | – | 118.5 | 90.5 | 70.8 | 56.4 | 45.7 | 37.5 | – | 26.3
x2 = 0.4964 | – | 420 | 295 | – | 170.9 | – | – | – | 63.2 | 51.6
x2 = 0.6016 | 1500 | 990 | 669 | 467 | 335 | 245 | 196 | 149.3 | 116 | 91.4
x2 = 0.7007 | – | 1973 | 1290 | 874 | 608 | 431 | 315 | 251 | 191 | –
x2 = 0.7994 | – | – | 2473 | 1632 | – | – | 551 | 404 | 301 | 229

CN1CCCC1=O + CCCCCC[n+]1ccn(C)c1.[Cl-]
x1 = 1
Conditions | viscosity [mPa·s]
288.15 K | 1.989
293.15 K | 1.853
298.15 K | 1.679
303.15 K | 1.556
308.15 K | 1.441
313.15 K | 1.323
318.15 K | 1.259
323.15 K | 1.148
328.15 K | 1.065
333.15 K | 1.029

CN1CCN(C)C1=O + CCCCCC[n+]1ccn(C)c1.[Cl-]
viscosity [mPa·s]
Conditions | 288.15 K | 293.15 K | 298.15 K | 303.15 K | 308.15 K | 313.15 K | 318.15 K | 323.15 K | 328.15 K | 333.15 K
x2 = 0 | – | 2.139 | 1.945 | 1.76 | – | 1.491 | 1.381 | 1.28 | – | 1.117
x2 = 0.1007 | – | 5.49 | 4.82 | 4.26 | 3.8 | 3.41 | 3.08 | – | 2.55 | 2.337
x2 = 0.1999 | 18.72 | 15.59 | 13.12 | – | – | 7.42 | 6.47 | 5.7 | 5.07 | 4.54
x2 = 0.2985 | 49.9 | 39.2 | 31.2 | 25.4 | 20.72 | 17.34 | 14.87 | – | 11.09 | –
x2 = 0.3856 | 124.2 | 92.5 | 71.6 | 55.9 | – | 35.7 | 29.2 | 24.3 | 20.29 | 17.2
x2 = 0.4985 | 301 | 214 | 155.5 | 116.4 | 88.9 | 69.2 | 54.9 | – | 37.1 | 29.9
x2 = 0.6069 | 707 | 477 | 332 | 241 | 185 | 138.5 | 106.2 | 82.7 | 64.8 | 52.5
x2 = 0.6969 | 1575 | 1029 | 694 | 478 | 338 | 246 | – | 137.9 | 106.7 | 83.8
x2 = 0.7981 | – | 2308 | 1473 | 978 | 666 | 468 | 335 | 247 | 184 | 141.2
